# Like-named read-outs stand apart in the source and are kept apart here.
# Tests used:
# Assay in all cases: Eurofins kinase selectivity profile against 380 other human recombinant kinases (Table S2)
# Format in all cases: biochemical
# [1] = target: T1, 380 human recombinant protein kinases (Homo sapiens, UniProt P06493); details: CDK1/cyclinB(h), read-out: Inhibition rate
# T1 construct: purchased Eurofins (Celle Lévescault)
# Summary of the method: (§1)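 The inhibitor was sent to a contract lab and screened at various concentrations against 380 human recombinant protein kinases. This served as a counter-screen for MK2 specificity.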
# [2] = target: T2, 380 human recombinant protein kinases (Homo sapiens, UniProt P12931); details: for inhibition at 0.01 µM: 10 nM; for inhibition at 0.1 µM: 100 nM; for inhibition at 1 µM: 1000 nM
# T2 construct: purchased Eurofins (Celle Lévescault)
# Summary of the method: as §1
# [3] = target: T3, 380 human recombinant protein kinases (Homo sapiens, UniProt P43250); details: GRK6(h), read-out: Inhibition rate
# T3 construct: purchased Eurofins (Celle Lévescault)
# Summary of the method: as §1
# [4] = target: T4, 380 human recombinant protein kinases (Homo sapiens, UniProt Q13315); details: ATM(h), read-out: Inhibition rate (%)
# T4 construct: purchased Eurofins (Celle Lévescault)
# Summary of the method: as §1
# [5] = target: T5, 380 human recombinant protein kinases (Homo sapiens, UniProt Q13464); details: ROCK-I(h), read-out: Inhibition rate
# T5 construct: purchased Eurofins (Celle Lévescault)
# Summary of the method: as §1
# [6] = target: T6, 380 human recombinant protein kinases (Homo sapiens, UniProt Q5VT25); details: MRCKα(h), read-out: Inhibition rate
# T6 construct: purchased Eurofins (Celle Lévescault)
# Summary of the method: as §1
# [7] = target: T7, 380 human recombinant protein kinases (Homo sapiens, UniProt Q92630); details: DYRK2(h), read-out: Inhibition rate
# T7 construct: purchased Eurofins (Celle Lévescault)
# T7 sequence (Q92630 1-601): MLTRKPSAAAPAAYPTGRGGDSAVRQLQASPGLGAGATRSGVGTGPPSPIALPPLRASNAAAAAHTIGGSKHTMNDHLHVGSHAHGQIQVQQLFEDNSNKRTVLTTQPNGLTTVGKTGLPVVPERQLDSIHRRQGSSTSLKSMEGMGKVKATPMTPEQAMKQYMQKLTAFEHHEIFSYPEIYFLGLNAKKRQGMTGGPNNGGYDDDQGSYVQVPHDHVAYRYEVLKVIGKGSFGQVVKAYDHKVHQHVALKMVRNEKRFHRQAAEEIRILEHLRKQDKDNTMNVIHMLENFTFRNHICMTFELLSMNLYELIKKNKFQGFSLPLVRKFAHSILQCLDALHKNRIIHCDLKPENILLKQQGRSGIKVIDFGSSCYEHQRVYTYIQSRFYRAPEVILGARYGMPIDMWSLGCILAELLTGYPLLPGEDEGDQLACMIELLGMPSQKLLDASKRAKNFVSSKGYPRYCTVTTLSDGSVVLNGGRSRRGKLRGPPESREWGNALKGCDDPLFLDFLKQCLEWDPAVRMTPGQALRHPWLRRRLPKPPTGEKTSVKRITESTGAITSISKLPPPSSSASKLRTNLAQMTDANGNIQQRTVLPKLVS
# Summary of the method: as §1
# [8] = target: T8, 380 human recombinant protein kinases (Homo sapiens, UniProt Q92772); details: CDKL2(h), read-out: Inhibition rate
# T8 construct: purchased Eurofins (Celle Lévescault)
# T8 sequence (Q92772 1-493): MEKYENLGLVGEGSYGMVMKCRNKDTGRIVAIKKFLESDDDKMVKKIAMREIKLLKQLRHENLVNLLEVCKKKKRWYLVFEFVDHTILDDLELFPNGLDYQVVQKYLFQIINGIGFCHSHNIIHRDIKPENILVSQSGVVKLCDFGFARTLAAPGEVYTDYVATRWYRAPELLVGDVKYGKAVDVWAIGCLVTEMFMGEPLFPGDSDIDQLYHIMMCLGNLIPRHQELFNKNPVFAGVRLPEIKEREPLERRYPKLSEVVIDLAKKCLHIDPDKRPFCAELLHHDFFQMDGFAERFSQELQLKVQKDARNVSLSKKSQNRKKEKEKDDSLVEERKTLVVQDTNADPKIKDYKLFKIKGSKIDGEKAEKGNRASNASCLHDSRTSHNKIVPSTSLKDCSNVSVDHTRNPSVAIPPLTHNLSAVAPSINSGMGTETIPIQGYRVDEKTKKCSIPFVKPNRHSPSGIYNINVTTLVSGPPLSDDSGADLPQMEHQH
# Summary of the method: as §1
# [9] = target: T9, 380 human recombinant protein kinases (Homo sapiens, UniProt Q9NSY1); details: BIKe(h), read-out: Inhibition rate
# T9 construct: purchased Eurofins (Celle Lévescault)
# Summary of the method: as §1
# [10] = target: T10, 380 human recombinant protein kinases (Homo sapiens, UniProt Q9P0L2); details: MARK1(h), read-out: Inhibition rate
# T10 construct: purchased Eurofins (Celle Lévescault)
# Summary of the method: as §1
# [11] = Src(1-530)(h), read-out: Inhibition rate (%)
# [12] = cSRC(h), read-out: Inhibition rate
# T2 sequence (P12931 whole entry): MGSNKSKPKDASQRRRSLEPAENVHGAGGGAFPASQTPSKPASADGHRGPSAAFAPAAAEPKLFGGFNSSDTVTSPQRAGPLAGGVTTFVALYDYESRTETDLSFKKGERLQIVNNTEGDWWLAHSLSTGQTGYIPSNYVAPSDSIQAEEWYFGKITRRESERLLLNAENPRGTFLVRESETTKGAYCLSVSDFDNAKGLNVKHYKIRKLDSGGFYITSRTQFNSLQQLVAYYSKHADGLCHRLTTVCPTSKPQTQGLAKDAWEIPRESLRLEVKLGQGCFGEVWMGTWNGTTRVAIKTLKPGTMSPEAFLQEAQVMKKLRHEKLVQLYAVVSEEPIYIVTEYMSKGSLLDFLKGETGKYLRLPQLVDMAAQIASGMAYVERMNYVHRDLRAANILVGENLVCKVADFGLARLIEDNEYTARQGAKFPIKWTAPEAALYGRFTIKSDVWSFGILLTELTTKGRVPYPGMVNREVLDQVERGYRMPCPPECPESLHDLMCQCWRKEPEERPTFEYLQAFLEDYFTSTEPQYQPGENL
# T6 sequence (Q5VT25 whole entry): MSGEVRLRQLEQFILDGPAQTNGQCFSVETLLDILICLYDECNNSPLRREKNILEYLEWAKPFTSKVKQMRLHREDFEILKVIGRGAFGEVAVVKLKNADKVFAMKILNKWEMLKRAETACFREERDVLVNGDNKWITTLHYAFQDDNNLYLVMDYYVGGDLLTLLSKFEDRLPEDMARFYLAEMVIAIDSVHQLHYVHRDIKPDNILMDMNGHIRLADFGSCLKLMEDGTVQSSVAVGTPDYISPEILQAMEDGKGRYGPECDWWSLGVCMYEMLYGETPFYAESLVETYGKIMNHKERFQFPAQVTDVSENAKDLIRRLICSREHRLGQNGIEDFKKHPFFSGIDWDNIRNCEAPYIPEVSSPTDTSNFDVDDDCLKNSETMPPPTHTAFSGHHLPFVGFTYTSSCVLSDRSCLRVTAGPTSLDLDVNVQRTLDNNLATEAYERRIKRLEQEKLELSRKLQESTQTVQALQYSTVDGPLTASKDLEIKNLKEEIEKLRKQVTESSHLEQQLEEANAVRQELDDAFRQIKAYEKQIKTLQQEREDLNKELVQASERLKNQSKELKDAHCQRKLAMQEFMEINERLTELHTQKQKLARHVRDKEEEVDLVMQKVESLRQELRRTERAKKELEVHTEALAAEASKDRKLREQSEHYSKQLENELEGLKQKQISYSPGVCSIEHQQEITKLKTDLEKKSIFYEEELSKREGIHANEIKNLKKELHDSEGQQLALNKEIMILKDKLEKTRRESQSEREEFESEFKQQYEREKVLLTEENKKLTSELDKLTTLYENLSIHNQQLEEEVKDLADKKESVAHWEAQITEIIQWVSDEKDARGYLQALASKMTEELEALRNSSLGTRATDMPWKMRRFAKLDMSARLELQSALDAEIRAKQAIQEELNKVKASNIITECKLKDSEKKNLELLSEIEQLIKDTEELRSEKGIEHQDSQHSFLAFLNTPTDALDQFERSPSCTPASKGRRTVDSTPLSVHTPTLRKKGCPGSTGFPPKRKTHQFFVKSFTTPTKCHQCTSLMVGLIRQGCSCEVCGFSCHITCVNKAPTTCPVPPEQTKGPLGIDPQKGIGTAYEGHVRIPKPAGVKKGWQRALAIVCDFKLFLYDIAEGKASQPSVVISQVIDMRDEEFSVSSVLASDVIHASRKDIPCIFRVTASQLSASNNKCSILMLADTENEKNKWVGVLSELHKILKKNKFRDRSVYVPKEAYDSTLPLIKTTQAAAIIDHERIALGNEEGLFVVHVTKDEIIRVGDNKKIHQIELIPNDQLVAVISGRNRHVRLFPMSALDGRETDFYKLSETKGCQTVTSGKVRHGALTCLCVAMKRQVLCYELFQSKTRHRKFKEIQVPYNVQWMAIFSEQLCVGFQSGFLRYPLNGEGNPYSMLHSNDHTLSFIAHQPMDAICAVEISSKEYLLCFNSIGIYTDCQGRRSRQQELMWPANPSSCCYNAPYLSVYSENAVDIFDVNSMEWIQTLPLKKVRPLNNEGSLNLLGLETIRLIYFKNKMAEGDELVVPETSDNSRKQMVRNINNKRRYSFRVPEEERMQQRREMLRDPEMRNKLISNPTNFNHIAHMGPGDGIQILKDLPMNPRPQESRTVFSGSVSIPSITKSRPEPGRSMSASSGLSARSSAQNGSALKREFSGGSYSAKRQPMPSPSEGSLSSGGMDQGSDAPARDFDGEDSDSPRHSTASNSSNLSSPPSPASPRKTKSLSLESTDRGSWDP
# T1 sequence (P06493 whole entry): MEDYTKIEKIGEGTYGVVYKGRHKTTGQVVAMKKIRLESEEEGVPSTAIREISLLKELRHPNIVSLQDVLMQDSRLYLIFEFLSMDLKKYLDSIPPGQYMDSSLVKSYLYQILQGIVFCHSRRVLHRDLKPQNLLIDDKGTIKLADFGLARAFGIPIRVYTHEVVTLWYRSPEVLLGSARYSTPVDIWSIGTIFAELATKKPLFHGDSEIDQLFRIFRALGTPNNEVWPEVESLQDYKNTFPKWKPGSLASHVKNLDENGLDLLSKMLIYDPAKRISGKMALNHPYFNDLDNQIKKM
# T5 sequence (Q13464 whole entry): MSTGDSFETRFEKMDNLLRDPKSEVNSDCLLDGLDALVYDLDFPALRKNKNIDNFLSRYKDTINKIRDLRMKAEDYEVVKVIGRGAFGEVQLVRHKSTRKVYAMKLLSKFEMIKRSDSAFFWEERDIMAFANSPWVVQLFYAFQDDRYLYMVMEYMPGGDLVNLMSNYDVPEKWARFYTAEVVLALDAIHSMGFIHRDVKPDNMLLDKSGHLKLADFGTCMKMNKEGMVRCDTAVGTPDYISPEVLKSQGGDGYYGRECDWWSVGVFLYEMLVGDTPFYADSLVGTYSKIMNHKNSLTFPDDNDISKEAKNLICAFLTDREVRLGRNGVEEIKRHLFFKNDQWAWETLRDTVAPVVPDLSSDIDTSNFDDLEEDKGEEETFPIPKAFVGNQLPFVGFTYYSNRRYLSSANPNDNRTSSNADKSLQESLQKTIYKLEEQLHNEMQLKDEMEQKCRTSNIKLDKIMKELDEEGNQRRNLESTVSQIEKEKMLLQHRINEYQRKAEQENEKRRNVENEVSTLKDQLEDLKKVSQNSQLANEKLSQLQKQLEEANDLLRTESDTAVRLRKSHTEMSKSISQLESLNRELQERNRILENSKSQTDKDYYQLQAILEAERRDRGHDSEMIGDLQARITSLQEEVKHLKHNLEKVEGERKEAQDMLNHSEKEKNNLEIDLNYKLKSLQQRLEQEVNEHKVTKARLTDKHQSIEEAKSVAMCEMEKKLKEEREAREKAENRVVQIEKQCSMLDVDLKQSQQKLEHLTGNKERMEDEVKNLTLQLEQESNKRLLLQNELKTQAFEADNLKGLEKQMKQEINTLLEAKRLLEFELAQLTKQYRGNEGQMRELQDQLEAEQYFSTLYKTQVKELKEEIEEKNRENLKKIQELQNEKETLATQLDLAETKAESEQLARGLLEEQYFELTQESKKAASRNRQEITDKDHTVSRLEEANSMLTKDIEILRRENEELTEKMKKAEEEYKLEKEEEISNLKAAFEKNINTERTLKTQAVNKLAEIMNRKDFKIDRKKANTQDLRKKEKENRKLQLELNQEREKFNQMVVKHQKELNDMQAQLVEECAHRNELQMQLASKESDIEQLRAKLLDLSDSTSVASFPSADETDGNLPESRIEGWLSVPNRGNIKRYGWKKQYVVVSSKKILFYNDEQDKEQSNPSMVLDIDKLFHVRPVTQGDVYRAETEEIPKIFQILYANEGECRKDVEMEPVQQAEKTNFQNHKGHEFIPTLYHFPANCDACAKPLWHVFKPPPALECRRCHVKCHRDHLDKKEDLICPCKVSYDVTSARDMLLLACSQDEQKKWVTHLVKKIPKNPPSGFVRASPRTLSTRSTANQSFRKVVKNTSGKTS
# T3 sequence (P43250 whole entry): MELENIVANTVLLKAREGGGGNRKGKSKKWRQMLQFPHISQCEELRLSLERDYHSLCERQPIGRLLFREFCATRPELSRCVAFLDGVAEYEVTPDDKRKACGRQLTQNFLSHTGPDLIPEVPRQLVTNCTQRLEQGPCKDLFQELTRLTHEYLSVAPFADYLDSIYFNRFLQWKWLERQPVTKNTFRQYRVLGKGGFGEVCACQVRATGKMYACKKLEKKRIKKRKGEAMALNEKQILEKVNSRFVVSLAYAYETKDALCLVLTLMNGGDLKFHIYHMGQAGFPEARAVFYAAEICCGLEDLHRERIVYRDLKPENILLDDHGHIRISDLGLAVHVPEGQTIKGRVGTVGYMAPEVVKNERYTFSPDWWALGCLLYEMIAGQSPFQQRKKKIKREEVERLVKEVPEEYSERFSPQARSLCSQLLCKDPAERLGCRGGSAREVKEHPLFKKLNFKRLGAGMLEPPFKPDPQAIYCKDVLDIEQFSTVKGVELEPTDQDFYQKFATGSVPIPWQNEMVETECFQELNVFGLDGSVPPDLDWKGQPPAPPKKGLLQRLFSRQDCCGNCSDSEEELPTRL
smiles,measurement,setting,value
C=CC(=O)Nc1cc(-c2cc(-c3cc4c([nH]3)CCNC4=O)ccn2)ccc1OC(F)(F)F [compound 11],inhibition at 0.01 µM,[1]; 10 nM,0%
same,inhibition at 0.1 µM,[1]; 100 nM,10%
same,inhibition at 1 µM,[1]; 1000 nM,43%
same,inhibition at 0.01 µM,[2]; [11],6%
same,inhibition at 0.1 µM,[2]; [11],5%
same,inhibition at 1 µM,[2]; [11],-1%
same,inhibition at 0.01 µM,[2]; [12],1%
same,inhibition at 0.1 µM,[2]; [12],8%
same,inhibition at 1 µM,[2]; [12],10%
same,inhibition at 0.01 µM,[3]; 10 nM,-1%
same,inhibition at 0.1 µM,[3]; 100 nM,-1%
same,inhibition at 1 µM,[3]; 1000 nM,1%
same,inhibition at 0.01 µM,[4]; 10 nM,-3%
same,inhibition at 0.1 µM,[4]; 100 nM,-6%
same,inhibition at 1 µM,[4]; 1000 nM,-9%
same,inhibition at 0.01 µM,[5]; 10 nM,2%
same,inhibition at 0.1 µM,[5]; 100 nM,-1%
same,inhibition at 1 µM,[5]; 1000 nM,-7%
same,inhibition at 0.01 µM,[6]; 10 nM,-5%
same,inhibition at 0.1 µM,[6]; 100 nM,-3%
same,inhibition at 1 µM,[6]; 1000 nM,-3%
same,inhibition at 0.01 µM,[7]; 10 nM,16%
same,inhibition at 0.1 µM,[7]; 100 nM,67%
same,inhibition at 1 µM,[7]; 1000 nM,98%
same,inhibition at 0.01 µM,[8]; 10 nM,31%
same,inhibition at 0.1 µM,[8]; 100 nM,50%
same,inhibition at 1 µM,[8]; 1000 nM,54%
same,inhibition at 0.01 µM,[9]; 10 nM,0%
same,inhibition at 0.1 µM,[9]; 100 nM,18%
same,inhibition at 1 µM,[9]; 1000 nM,48%
same,inhibition at 0.01 µM,[10]; 10 nM,-1%
same,inhibition at 0.1 µM,[10]; 100 nM,-12%
same,inhibition at 1 µM,[10]; 1000 nM,-4%

# — paper PMC11233931, “Remodeling tumor‐associated macrophage for anti‐cancer effects by rational design of irreversible inhibition of mitogen‐activated protein kinase‐activated protein kinase 2” (MedComm, 2024)
